These results are taken from publication PMC7472354, “Enhanced Antimicrobial Activity of N-Terminal Derivatives of a Novel Brevinin-1 Peptide from The Skin Secretion of Odorrana schmackeri” (Toxins, 2020).

In series [1] the test system is Pseudomonas aeruginosa (ATCC 27853). The series is classed as cell-based. As to conditions: for MBC: ATCC 27853, 18 h; for MIC: ATCC 27853, 24 h.
In series [2] the test system is P. aeruginosa (ATCC 27853) biofilm. The series is classed as cell-based, Pseudomonas aeruginosa. The conditions noted are these: for MBIC50 / MBIC90: ATCC 27853, 24 h. Here is the method: The anti-biofilm effects of all synthetic peptides were evaluated, which was described in our previous study. The organisms, including S. aureus (NCTC 10788), E. coli (NCTC 10418), MRSA (ATCC 12493), E. faecalis (NCTC 12697) and P. aeruginosa (ATCC 27853), were investigated in this study. Gram-positive bacteria were cultured in the TSB broth and Gram-negative bacteria were cultured in the LB broth. The anti-biofilm effects were determined based on the MBIC and MBEC of all the peptides. For the determination of MBIC, 5 × 10^5 CFU/mL bacterial cultures were incubated with the peptides concentrations (ranging from 1 µM to 512 µM) for 24 h. The sterilised medium and bacterial suspension without any treatment were used as the negative controls and positive controls, respectively. After incubation, wells were rinsed, fixed, stained, washed and dissolved with phosphate buffer saline (PBS), methanol (90%, v/v), crystal violet (0.1%, w/v), sterile deionised water and acetic acid (30%, v/v), respectively. The absorbance of dissolved stain was measured at a 595 nm using a Synergy HT plate reader (Biotech, Minneapolis, MN, USA).
For the MBEC assay, the peptide concentrations were prepared as above. The bacteria were cultured in the 96 well plate for 24–48 h, which allowed the formation of mature biofilm in the plate. Then, the bacterial culture was removed from the plate. The biofilm was further washed to remove the planktonic bacteria using PBS. Then, the fresh broth that contained different peptide concentrations was added in the plate for incubation of 24 h at 37 °C. After incubation, the plate was stained by crystal violet as mentioned above. The definition of MBIC can be given when compared to the negative control group (≥90%, MBIC90; ≥50%, MBIC50). The definition of the MBEC can be given when compared to the negative control group (≥90%, MBEC90; ≥50%, MBEC50).

For another series, the system named is E. coli. It is filed as cell-based, Escherichia coli. As to conditions: 24 h. Here is the method:
(§1) The minimal inhibitory concentrations (MICs) and minimum bactericidal concentrations (MBCs) were evaluated to determine the antimicrobial activity of synthetic peptides. The microorganisms employed in the study are two kinds of Gram-negative bacteria, Escherichia coli (NCTC 10418) and Pseudomonas aeruginosa (ATCC 27853), three kinds of Gram-positive bacteria, Staphylococcus aureus (NCTC 10788), Methicillin-resistant Staphylococcus aureus (MRSA, ATCC 12493) and Enterococcus faecalis (NCTC 12697) and a yeast, Candida albicans (NCPF 1467), as indicated previously. For antimicrobial assays, 5 × 10^5 CFU/mL of bacterial suspensions were incubated with the concentrations of the peptides (ranging from 1 µM to 512 µM) for 24 h at 37 °C. The sterilised broth medium was used as the positive control and the microorganism cultured in the medium only was treated as the negative control. […] The MBC results were defined as the lowest bactericidal concentrations of peptide. The antimicrobial activity of peptides was tested by monitoring the absorbance at 550 nm using an ELISA plate reader (Biolise BioTek EL808, Winooski, VT, USA).
(§2) The activity of peptides in the different environmental conditions including different concentrations of NaCl (50, 100 and 150 mM) and MgCl2 (0.5, 1 and 2 mM), pH (6, 7 and 8), temperature (50 °C, 75 °C and 100 °C) and 10% fetal bovine serum (FBS) solution, was evaluated using the broth microdilution assay as described in the antimicrobial activity assay. For the stability test of peptides in the presence of salt, pH and serum, these conditions were adjusted in the fresh medium that was further used to dilute the bacteria suspension. The peptides were also dissolved in such broth and mixed with the bacteria suspension in the 96 well plate. For the thermal stability test, the peptides were dissolved in the water and incubated at different temperature for 15 min before dosing in the plate. The sterilised broth with corresponding conditions was used as the positive controls, and the bacteria suspension without any treatment was used as the negative controls.

The test system of a further series is P. aeruginosa. The series is classed as cell-based, Pseudomonas aeruginosa. As to conditions: 24 h. Here is the method: as §1, §2
The test system of series [3] is Galleria mellonella larvae. The series is described as follows: Toxicity to uninfected Galleria mellonella larvae. It is filed as in vivo. As to conditions: uninfected G. mellonella larvae injected with drug; n = 30 per group; vancomycin 20 mg/kg. On the procedure: The in vivo study of antimicrobial activity of the peptides was evaluated using the larvae of Galleria mellonella, which was described in the previous study with minor modifications. The larvae of Galleria mellonella (250 ± 25 mg; Livefood UK Ltd., Rooks Bridge, UK) were selected. The MRSA culture was prepared the same way as the antimicrobial activity assay. Then, MRSA cells were collected and washed, and further diluted to 10^8 CFU/mL in the saline. Ten µL of MRSA suspension was injected to the larvae and placed in a petri dish. After 2 h, the MRSA infected larvae were administrated with 10 µL of peptides (25 mg/kg, 50 mg/kg) by injection. Saline and vancomycin (20 mg/kg) (Sigma-Aldrich, UK) were used as the negative control and positive control, respectively. Each sample group contained 10 larvae, and the experiment was repeated three times (30 larvae for each group in total). The survival curves were achieved using Prism (Version 6.0; GraphPad Software Inc., San Diego, CA, USA) and the log-rank test was employed to analyze the significance between the different treatments and the controls. * (p < 0.05), ** (p < 0.01) and *** (p < 0.001) represent statistical significance.
Figure A9 Larvae without any MRSA infection were injected with peptides and vancomycin respectively to access the cytotoxicity of the drugs to larvae bodies. […] Effect of treatment of G. mellonella larvae (n = 30 for each group) without any infection and only treated with 5 µL vancomycin (20 mg/kg), OSd, OSe and OSf.

≈ marks a conversion by molar mass, not a printed value. Read-outs that look alike come from different tables or passages of the source. Where a SMILES comes first, the peptide text is derived from it. Where only a bound is given, the exact number is not on record here.

Regarding `CC(C)C[C@H](NC(=O)[C@H](C)NC(=O)[C@H](Cc1c[nH]c2ccccc12)NC(=O)[C@H](CCCCN)NC(=O)[C@H](CC(C)C)NC(=O)[C@@H](N)Cc1ccccc1)C(=O)N[C@@H](CCCCN)C(=O)N[C@H](C(=O)N[C@@H](C)C(=O)N[C@@H](C)C(=O)N[C@@H](CCCCN)C(N)=O)C(C)C` [OSd] (H-FLKWALKVAAK-NH2), the MBC in series [1] was determined as 64 µM (≈ 81.5 µg/mL). Moreover, the MIC came to 64 µM (≈ 81.5 µg/mL) in series [1]; 64 µM (≈ 81.5 µg/mL) in the series with E. coli (pH 6); 64 µM (≈ 81.5 µg/mL) with E. coli (pH 7); 64 µM (≈ 81.5 µg/mL) against E. coli (pH 8); 128 µM (≈ 163 µg/mL) against P. aeruginosa (pH 6); 128 µM (≈ 163 µg/mL) in the series with P. aeruginosa (pH 7). The compound further came in with an MIC with P. aeruginosa (pH 8) of 64 µM (≈ 81.5 µg/mL). For the same compound, the MBEC50 in series [2] was greater than 512 µM. The MBEC90 in series [2] is reported as greater than 512 µM. The MBIC50 in series [2] is on record as 128 µM. The MBIC90 in series [2] was 256 µM. Further, the “toxicity to larvae without MRSA infection” value in series [3] is on record as “No noticeable cytotoxicity”.
As to `CC(C)C[C@H](NC(=O)[C@H](C)NC(=O)[C@H](Cc1c[nH]c2ccccc12)NC(=O)[C@H](CCCCN)NC(=O)[C@H](CC(C)C)NC(=O)[C@@H](N)Cc1ccccc1)C(=O)N[C@@H](CCCCN)C(=O)N[C@@H](Cc1c[nH]c2ccccc12)C(=O)N[C@@H](C)C(=O)N[C@@H](C)C(=O)N[C@@H](CCCCN)C(N)=O` [OSe] (H-FLKWALKWAAK-NH2), in series [1], the MBC was determined as 16 µM (≈ 21.8 µg/mL). Also, the MIC in series [1] was 16 µM (≈ 21.8 µg/mL); against E. coli (pH 6), 32 µM (≈ 43.5 µg/mL); with E. coli (pH 7) it was 16 µM (≈ 21.8 µg/mL); with E. coli (pH 8) it was 16 µM (≈ 21.8 µg/mL); in the series on P. aeruginosa (pH 6), 32 µM (≈ 43.5 µg/mL); against P. aeruginosa (pH 7) it was 64 µM (≈ 87.1 µg/mL). This compound had an MIC in the series on P. aeruginosa (pH 8) of 32 µM (≈ 43.5 µg/mL). In addition, the MBEC50 in series [2] is reported as greater than 512 µM. Further, the MBEC90 in series [2] is recorded as greater than 512 µM. Besides, the MBIC50 in series [2] turned out to be 64 µM. For the same compound, the MBIC90 in series [2] is 128 µM. Moreover, in series [3], the “toxicity to larvae without MRSA infection” value was “No noticeable cytotoxicity”.
`CC(C)C[C@H](NC(=O)[C@H](C)NC(=O)[C@H](Cc1c[nH]c2ccccc12)NC(=O)[C@H](CCCCN)NC(=O)[C@@H]1CCCN1C(=O)[C@H](CC(C)C)NC(=O)[C@@H](N)Cc1ccccc1)C(=O)N[C@@H](CCCCN)C(=O)N[C@@H](Cc1c[nH]c2ccccc12)C(=O)N[C@@H](C)C(=O)N[C@@H](C)C(=O)N[C@@H](CCCCN)C(N)=O` [OSf] (H-FLPKWALKWAAK-NH2; N-terminus assumed): in series [1], the MBC was determined as 64 µM (≈ 93.3 µg/mL). Further, the MIC in series [1] was determined as 64 µM (≈ 93.3 µg/mL); against E. coli (pH 6), 128 µM (≈ 187 µg/mL); in the series on E. coli (pH 7), 8 µM (≈ 11.7 µg/mL); against E. coli (pH 8) it was 32 µM (≈ 46.7 µg/mL); against P. aeruginosa (pH 6) it was 128 µM (≈ 187 µg/mL); with P. aeruginosa (pH 7), 256 µM (≈ 373 µg/mL). In the series with P. aeruginosa (pH 8), the MIC is recorded as 64 µM (≈ 93.3 µg/mL). Moreover, the MBEC50 in series [2] was greater than 512 µM. In addition, the MBEC90 in series [2] was greater than 512 µM. Further, the MBIC50 in series [2] stood at 64 µM. Also, the MBIC90 in series [2] is 256 µM. Also, the “toxicity to larvae without MRSA infection” value in series [3] was “No noticeable cytotoxicity”.
